Reference: article PMC3260207, “Site-Directed Mutations and the Polymorphic Variant Ala160Thr in the Human Thromboxane Receptor Uncover a Structural Role for Transmembrane Helix 4” (PLoS ONE, 2012)
Positions count from the first letter of the chain named.

What was measured:
Experiment in all cases: Saturation radioligand binding with [3H] SQ 29,548, membranes
Details in all cases: picomoles of TP per milligram of total membrane protein, mean ± S.E
[1] = target: T1, WT-TP (wild type human thromboxane A2 receptor TPα) (Homo sapiens, UniProt P21731)
T1 construct: expressed in transfected cells; HEK293T (calcium assays)
T1 sequence (P21731 1-343): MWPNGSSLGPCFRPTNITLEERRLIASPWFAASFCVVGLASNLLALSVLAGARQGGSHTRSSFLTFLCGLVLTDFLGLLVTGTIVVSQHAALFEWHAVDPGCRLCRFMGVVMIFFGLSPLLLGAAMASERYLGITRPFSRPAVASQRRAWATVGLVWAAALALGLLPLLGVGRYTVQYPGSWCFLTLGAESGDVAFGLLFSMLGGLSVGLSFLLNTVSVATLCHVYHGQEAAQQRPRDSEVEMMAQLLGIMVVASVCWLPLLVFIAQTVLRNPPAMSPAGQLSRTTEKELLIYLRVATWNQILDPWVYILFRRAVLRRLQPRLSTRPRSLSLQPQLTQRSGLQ
Method: (§1) Amino acid substitutions were introduced into the synthetic TPα gene carried by the expression vector pMT4 as described previously, [29]. DNA sequences of all the mutated genes were verified by automated DNA sequencing. To minimize variations in transfection efficiency, the total amount transfected DNA was kept constant in all cases at 1 µg of DNA per 7×10^5 cells. The wild type TP or mutant genes were expressed in COS-1 cells using a DEAE-dextran based transient transfection method, [29], and in HEK293T cells using lipofectamine 2000 (Invitrogen). Except unless specified, the membranes prepared from COS-1 cells were used for radioligand binding assays and immunoblots. For intracellular calcium determination assays and immunofluorescence imaging, HEK293T cells were used. For transient transfections of HEK293T cells using the plasmid pMT4, lipofectamine 2000 (Invitrogen) mediated transfection was used as described by the manufacturer. Membranes were prepared using Buffers A and B and as described previously, [29]. The protein concentration in the resuspended membrane pellet was determined using a modified DC protein assay kit from Bio-Rad Laboratories (Hercules, CA).
(§2) These were carried out in Buffer C for 60 min at room temperature, using 2 to 20 µg of membrane protein and different concentrations of [^3H] […] Binding of [^3H] […] Competition binding assays were performed using 4 nM [^3H] […] Binding was terminated by filtering under vacuum on GF/A filters (Millipore). Filter-bound radioactivity was measured using a liquid scintillation counter. Equilibrium dissociation constants (Kd) were determined from saturation isotherms using PRISM software version 5.0 (GraphPad Software Inc, San Diego, CA, USA). The Ki values were calculated from the IC50, using the equation of Cheng and Prusoff by PRISM software version 5.0.

[2] = target: T2, TP G164A mutant (Homo sapiens, UniProt P21731, G164A)
T2 construct: expressed in transfected cells; HEK293T (calcium assays)
T2 sequence (P21731 1-343 G164A): T1 sequence (P21731 1-343) with G164A
Method: as §1, §2

[3] = target: T3, TP A160T mutant (nsSNP variant) (Homo sapiens, UniProt P21731, A160T)
T3 construct: expressed in transfected cells; HEK293T (calcium assays)
T3 sequence (P21731 1-343 A160T): T1 sequence (P21731 1-343) with A160T
Method: as §1, §2

[4] = target: T4, TP A160S mutant (Homo sapiens, UniProt P21731, A160S)
T4 construct: expressed in transfected cells; HEK293T (calcium assays)
T4 sequence (P21731 1-343 A160S): T1 sequence (P21731 1-343) with A160S
Method: as §1, §2

[5] = target: T5, TP V110A mutant (Homo sapiens, UniProt P21731, V110A)
T5 construct: expressed in transfected cells; HEK293T (calcium assays)
T5 sequence (P21731 1-343 V110A): T1 sequence (P21731 1-343) with V110A
Method: as §1, §2

[6] = target: T6, TP A160V mutant (Homo sapiens, UniProt P21731, A160V)
T6 construct: expressed in transfected cells; HEK293T (calcium assays)
T6 sequence (P21731 1-343 A160V): T1 sequence (P21731 1-343) with A160V
Method: as §1, §2

Bmax, binding maximum of the ligand SQ 29,548 for the receptor [1]: 3.8 ± 0.3 pmol/mg
Bmax, binding maximum of the ligand SQ 29,548 for the receptor [2]: 6.3 ± 0.4 pmol/mg
Bmax, binding maximum of the ligand SQ 29,548 for the receptor [3]: 1.8 ± 0.4 pmol/mg
Bmax, binding maximum of the ligand SQ 29,548 for the receptor [4]: 5.8 ± 0.5 pmol/mg
Bmax, binding maximum of the ligand SQ 29,548 for the receptor [5]: 1.8 ± 0.3 pmol/mg
Bmax, binding maximum of the ligand SQ 29,548 for the receptor [6]: 1.9 ± 0.3 pmol/mg
SMILES: O=C(O)CCC/C=C\C[C@@H]1[C@H](CNNC(=O)Nc2ccccc2)[C@H]2CC[C@@H]1O2 [SQ 29,548]
